# Structures can show the parent of a compound that is named as a salt.
# Target: T1, human IP receptor (PGI2 receptor) (Homo sapiens, UniProt P43119)
# T1 construct: gene PTGIR
# Test: competitive binding assay with membrane fractions of CHO or COS-7 cells expressing the receptor; also cAMP increase in COS-7 cells expressing human IP
# T1 sequence (P43119 1-383): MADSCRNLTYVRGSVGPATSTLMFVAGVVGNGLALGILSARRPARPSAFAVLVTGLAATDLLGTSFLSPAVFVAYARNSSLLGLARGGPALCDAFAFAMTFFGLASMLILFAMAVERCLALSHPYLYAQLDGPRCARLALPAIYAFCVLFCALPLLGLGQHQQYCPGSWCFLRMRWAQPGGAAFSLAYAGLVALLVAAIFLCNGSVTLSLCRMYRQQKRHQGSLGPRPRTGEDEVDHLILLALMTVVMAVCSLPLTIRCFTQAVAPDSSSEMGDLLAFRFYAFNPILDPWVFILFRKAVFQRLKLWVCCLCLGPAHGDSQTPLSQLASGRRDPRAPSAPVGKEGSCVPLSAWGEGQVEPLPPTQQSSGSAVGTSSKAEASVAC
smiles,measurement,value
"O=C(O)COC1CCN(CCN(C(=O)c2ccc3c(c2)OCO3)c2ccc(Cl)cc2)CC1 [compound 2, 2-((1-(2-(N-(4-Chlorophenyl)benzo[d][1,3]dioxole-5-carboxamido)ethyl)piperidin-4-yl)oxy)acetic acid phosphoric acid salt]",Ki,310 nM
